The target in data set [1] is T1, T. brucei TryR (Trypanosoma brucei brucei, UniProt P39051). Briefly: TryR enzyme assay. Format: biochemical, Trypanosoma brucei brucei strain S427. Conditions: for improvement in TryR potency with respect to ester 1c: vs 1c IC50 9.4 μM; for ligand efficiency: from T. brucei TryR IC50; for fold less active than 9a against TryR: vs 9a.
The test system of data set [2] is bloodstream form T. brucei brucei. Briefly: Resazurin fluorescence-based cell viability assay, T. brucei. On the set-up: species or system Trypanosoma brucei brucei. In general terms: Alamar Blue is a resazurin reagent that responds to reducing activity.
Data set [3] is described as follows: Resazurin viability counter-screen, MRC5 cells. Type of data set: cell-based. Particulars: human, MRC-5 cells.
Data set [4] addresses T1, T. brucei TryR. In words: Mode of inhibition studies. Type of data set: biochemical. Particulars: for mode of inhibition: with respect to trypanothione disulfide.

T1 sequence (P39051 whole entry): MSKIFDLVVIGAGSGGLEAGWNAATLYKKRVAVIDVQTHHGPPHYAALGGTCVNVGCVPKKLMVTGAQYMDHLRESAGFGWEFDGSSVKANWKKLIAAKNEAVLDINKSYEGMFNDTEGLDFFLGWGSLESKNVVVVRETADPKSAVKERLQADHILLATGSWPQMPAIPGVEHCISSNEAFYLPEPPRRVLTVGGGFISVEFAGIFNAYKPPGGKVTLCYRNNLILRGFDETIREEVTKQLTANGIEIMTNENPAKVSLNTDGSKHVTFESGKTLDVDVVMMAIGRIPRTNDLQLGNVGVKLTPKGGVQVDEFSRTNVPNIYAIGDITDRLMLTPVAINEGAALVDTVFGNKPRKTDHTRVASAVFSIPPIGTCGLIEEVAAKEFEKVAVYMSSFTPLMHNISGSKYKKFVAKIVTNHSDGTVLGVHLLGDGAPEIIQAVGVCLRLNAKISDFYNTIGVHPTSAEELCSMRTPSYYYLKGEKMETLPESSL

For `CC1=Nc2ccc(Cl)cc2C(c2ccccc2)N1Cc1ccccc1` (racemic) [6a, (R/S)-3-Benzyl-6-chloro-2-methyl-4-phenyl-3,4-dihydroquinazoline], on T. brucei TryR [1], the “improvement in TryR potency with respect to ester 1c” value (shortened to “improvement … to ester 1c”) was 10 fold.
`COC(=O)CN1C(C)=Nc2ccc(C)cc2C1c1ccccc1` (stereo not shown) [1b]: on T. brucei TryR [1], the “difference in activity between T. cruzi and T. brucei TryR” value is reported as < 3 fold.
For `CC1=Nc2ccc(Cl)cc2C(c2ccccc2)N1CCN1CCN(C)CC1` (stereo not shown) [9c], at T. brucei TryR [1], the ligand efficiency is 0.31 kcal mol^–1 per non-H atom and the “improvement … to ester 1c” value was found to be 10 fold.
As to `CC1=Nc2ccc(Cl)cc2C(C2CCCCC2)N1CCN1CCCCC1` (stereo not shown) [29f], on T. brucei TryR [1], the “fold less active than 9a against TryR” value turned out to be 15 fold.
As to `CC1=Nc2ccc(-c3ccccc3)cc2C(c2ccccc2)N1CCN1CCCCC1` (racemic) [16a, (R/S)-2-Methyl-4,6-diphenyl-3-(2-(piperidin-1-yl)ethyl)-3,4-dihydroquinazoline], the “fold more potent against T. brucei cells than against TryR” value in data set [2] was 10 fold.
In the case of `CC1=Nc2ccc(Cl)cc2C(c2ccccc2)N1CCN1CCCCC1` (racemic) [9a, (R/S)-6-Chloro-2-methyl-4-phenyl-3-(2-(piperidin-1-yl)ethyl)-3,4-dihydroquinazoline], in data set [2] (ratio, fold), the “selectivity (MRC5 EC50/T. brucei EC50)” value is listed as 11.
Turning to `CC1=Nc2ccc(Cl)cc2C(c2ccccc2)N1CCN1CCN(C(=O)c2ccco2)CC1` (stereo not shown) [13e], at T. brucei TryR [1], the ligand efficiency is on record as 0.27 kcal mol^–1 per non-H atom and the “improvement … to ester 1c” value is 22 fold.
In general, EC50 refers to the concentration needed to bring the measured effect to its halfway point. As usually defined, the Ki is the equilibrium dissociation constant of an inhibitor or competing ligand from its target. A lower Ki goes with a stronger hold on the target. Turning to `COC(=O)CN1C(C)=Nc2ccc(Br)cc2C1c1ccccc1` (stereo not shown) [1a], the concentration for a half-maximal effect (EC50) in data set [3] was > 50 µM. Moreover, on T. brucei TryR [4], the Ki was found to be 0.92 ± 0.06 µM and the mode of inhibition result is listed as “linear competitive inhibitor”. For the same compound, in data set [2], the “reduction in potency between biochemical (TryR IC50) and cell assay (T. brucei EC50)” value is > 5 fold. Moreover, the “difference in activity between T. cruzi and T. brucei TryR” value on T. brucei TryR [1] is reported as < 3 fold.
Turning to `CC1=Nc2ccc(Cl)cc2C(c2ccccc2)N1Cc1ccccc1F` (stereo not shown) [6d], the “improvement … to ester 1c” value at T. brucei TryR [1] was determined as 10 fold.
As to `COC(=O)CN1C(C)=Nc2ccc(Br)cc2C1c1ccccc1Cl` (stereo not shown) [1d], the “TryR IC50” value on T. brucei TryR [1] (recombinant T. brucei TryR, mean of at least two replicates) is “inactive”.
Turning to `CCN1C(C)=Nc2ccc(Cl)cc2C1c1ccccc1` (stereo not shown) [6k], the ligand efficiency at T. brucei TryR [1] is listed as > 0.3 kcal mol^–1 per non-H atom.
With `N=C(N)c1ccc(OCCCCCOc2ccc(C(=N)N)cc2)cc1` [Pentamidine, pentamidine, reference compound], the EC50 in data set [2] (Trypanosoma brucei, read-out: T. brucei EC50 (positive control)) came out at 0.005 µM.
Turning to `CC1=Nc2ccccc2C(c2ccccc2)N1CCN1CCCCC1` (stereo not shown) [15b], the “fold less potent against T. brucei than C6-halogen analogues 9a, 15c, 15d” value in data set [2] is on record as ~10 fold.
Turning to `CC1=Nc2ccc(Cl)cc2C(c2ccccc2)N1Cc1cccc(N(C)C)c1` (stereo not shown) [6g], the “improvement … to ester 1c” value at T. brucei TryR [1] is given as 10 fold.
Take `CC1=Nc2ccc(Cl)cc2C(c2ccccc2)N1CCNC(=O)c1ccco1` (stereo not shown) [11e]: on T. brucei TryR [4], the mode of inhibition entry was “mixed mode of inhibition”. The “improvement … to ester 1c” value at T. brucei TryR [1] is reported as 11 fold.
For `CC1=Nc2ccc(-c3ccsc3)cc2C(c2ccccc2)N1CCN1CCCCC1` (stereo not shown) [16d], the “fold more potent against TryR than other C6-aryls (16a,b,e,f)” value at T. brucei TryR [1] is 5- to 10 fold.
For the compound `CC1=Nc2ccc(Br)cc2C(c2ccccc2)N1CCN1CCCCC1` (stereo not shown) [15c, 6-bromo-2-methyl-4-phenyl-3-(2-(piperidin-1-yl)ethyl)-3,4-dihydroquinazoline], the “fold more potent against TryR than C6-phenyl analogue 16a” value at T. brucei TryR [1] turned out to be 10 fold.
As to `COc1cccc(C2c3cc(Cl)ccc3N=C(C)N2CCN2CCCCC2)c1` (stereo not shown) [29d], the “fold less active than 9a against TryR” value at T. brucei TryR [1] is 15 fold.
Turning to `CC1=Nc2ccc(-c3ccco3)cc2C(c2ccccc2)N1CCN1CCCCC1` (stereo not shown) [16c], the “fold more potent against TryR than other C6-aryls (16a,b,e,f)” value on T. brucei TryR [1] is 5- to 10 fold.
Regarding `CC1=Nc2ccc(Cl)cc2C(c2ccc(C)cc2)N1CCCN(C)C` (stereo not shown) [29a, 3-(6-Chloro-2-methyl-4-p-tolylquinazolin-3(4H)-yl)-N,N-dimethylpropan-1-amine], the “TryR Ki′” value at T. brucei TryR [4] (mixed inhibition, enzyme–T[S]2 complex) was 1.46 µM. Moreover, on T. brucei TryR [4], the mode of inhibition result is reported as “linear mixed”. In addition, at T. brucei TryR [1], the ligand efficiency is listed as > 0.3 kcal mol^–1 per non-H atom. Also, on T. brucei TryR [1] (vs 9e IC50 1.0 μM), the “improvement in TryR potency cf. 9e” value turned out to be 4 fold.
Turning to `CC1=Nc2ccc(Cl)cc2C(c2ccccc2)N1CCN1CCN(C(=O)CN(C)C)CC1` (stereo not shown) [13h], the mode of inhibition result on T. brucei TryR [4] is reported as “mixed mode of inhibition”.

The record behind these values is paper PMC3188286 (Journal of Medicinal Chemistry, 2011).
